In patent publication US8470765B2, “Polypeptides and antibacterial or antiseptic use of same” (AnGes MG, Inc., priority 2009, dated 2013):
No end group written: not given here.

These compounds were tested on Actinobacillus actinomycetemcomitans JCM2434 (assay: not given). Conditions: not given.
Compound GRLKRMGKRLKRKIQKWARW-NH2 [SRP-14] has an MIC Actinobacillus actinomycetemcomitans of 64 mg/L.
Compound KLIFLHRLKRELRKRLKRKLR-NH2 [SRP-13] has an MIC Actinobacillus actinomycetemcomitans of 128 mg/L.
For RLKRMRKRLKRKLRLW-NH2 [SRP-17], the MIC Actinobacillus actinomycetemcomitans was > 128 mg/L.
In the case of RLKRMRKRLKRKLRLWHRKRYK-NH2 [SRP-8], the MIC Actinobacillus actinomycetemcomitans was > 128 mg/L.
For KLIFLRELRRLRKRLKRKLR-NH2 [SRP-16], the MIC Actinobacillus actinomycetemcomitans was 128 mg/L.
For IFLHRLKRMRKRLKRKLRLW-OH [SRP-7], the MIC Actinobacillus actinomycetemcomitans was 128 mg/L.
GRLKRMGERLKRKIQKWIRW-NH2 [SRP-15] was tested, and the MIC Actinobacillus actinomycetemcomitans was 32 mg/L.
“KNLRRIIRKIIHIIKKYG-NH2 [Ovispirin-1, reference compound]” showed an MIC Actinobacillus actinomycetemcomitans of 128 mg/L.

The compounds below were run on Pseudomonas aeruginosa (P. aeruginosa ATCC27853) (assay: ATP assay (BacTiter-Glo) viability, Table 2). Conditions: ATCC27853, 3 h, read-out: Viability (%) P. aeruginosa.
Format: cell-based
Method: (§1) The antibacterial activity of the polypeptides was measured using the ATP assay method.
(§2) Using BacTiter-Glo Microbial Cell Viability Assay kit available from PROMEGA, the antibacterial activity of the peptides was evaluated from the viability of bacteria. That is, ATP amount in viable bacteria in cases where the concentration of the peptides was 10 μg/ml, was measured using a microtiter plate or test tubes.
(§3) With respect to the strains, Staphylococcus aureus (S. aureus ATCC29213) as Gram-positive bacteria, or, alternatively, Pseudomonas aeruginosa (P. aeruginosa ATCC27853) as Gram-negative bacteria, was used. The bacteria were cultured in media for 3 to 4 hours, and thereafter absorbances at A600 were measured. Bacterial suspensions were diluted with Mueller-Hinton broth (MHB) according to McFarland #0.5. Each strain was added so as to attain about 0.5-1×10^5 CFU/mL (final concentration) in terms of Escherichia coli. Each peptide was prepared and added to a microplate or test tubes so as to attain a final concentration of […], and the bacterial suspension was added thereto. […] The plate was incubated at 37° C. for 3 hours, and the amount of ATP in the culture media was measured. Relative values were calculated by comparison with the negative control, and these values were regarded as the viability.
NC[C@H]1O[C@H](O[C@H]2[C@H](O)[C@@H](O[C@H]3O[C@H](CO)[C@@H](O)[C@H](N)[C@H]3O)[C@H](N)C[C@@H]2N)[C@H](N)C[C@@H]1O [tobramycin, reference compound] showed a viability at 1 µg/mL of 1.8%.

Each compound was assayed on Staphylococcus aureus (S. aureus ATCC29213) (assay: ATP assay (BacTiter-Glo) viability, Table 2). Conditions: ATCC29213, 3 h, read-out: Viability (%) S. aureus.
Format: cell-based
Method: as §1, §2, §3
NC[C@H]1O[C@H](O[C@H]2[C@H](O)[C@@H](O[C@H]3O[C@H](CO)[C@@H](O)[C@H](N)[C@H]3O)[C@H](N)C[C@@H]2N)[C@H](N)C[C@@H]1O [tobramycin, reference compound] gave a viability at 1 µg/mL of 3.6%.
